Source: US5599807A, “Steroid derivatives” (Senju Pharmaceutical Co., Ltd., priority 1993, dated 1997)
Structures can show the parent of a compound that is named as a salt.

System: rat carrageenin-induced pleuritis
Assay: Inhibitory effect on rat carrageenin-induced pleuritis (dye leakage into pleural cavity)
Assay type: in vivo, Wistar rats
Details: NFLX-DX 13.4 mg/kg orally 30 min before induction, n = 7
Protocol: Inhibitory Effect of the Compound on Rat Carrageenin-induced Pleuritis The inhibitory effect of norfloxacin-dexamethasone ester hydrochloride on rat carrageenin-induced pleuritis was evaluated. [Test substance] Norfloxacin-dexamethasone ester hydrochloride (abbreviatedname: NFLX-DX) Wistar rats weighing about 200 g were used. Two groups receiving (1) distilled water (5 ml/kg) and (2) NFLX-DX (13.4 mg/kg), respectively, were provided. Under pentobarbital anesthesia, 0.1 ml of 2% λ-carrageenin was injected into the rat pleura to induce pleuritis. Five hours after the construction of pleuritis, a 5% aqueous solution of Pontamine Sky Blue (2 mg/kg) was injected intravenously, and 20 minutes later the rat was sacrificed and the pleural exudate was collected using a tube. The amount of dye leakage in the pleural cavity (μg/site) was estimated from the amount and absorbance (625 nm) of the exudate sample (ml) by the calibration curve method. The test substance was administered orally (5 ml/kg) 30 minutes before induction of inflammation.

Question: How did the Dye leakage (mean ± standard error, * p < 0.01 vs control (distilled water, 74.81 ± 10.70)) turn out when `CCn1cc(C(=O)OCC(=O)[C@@]2(O)[C@H](C)C[C@H]3[C@@H]4CCC5=CC(=O)C=C[C@]5(C)[C@@]4(F)[C@@H](O)C[C@@]32C)c(=O)c2cc(F)c(N3CCNCC3)cc21` [NFLX-DX, 9-Fluoro-11β,17,21-trihydroxy-16α-methyl-1,4-pregnadiene-3, 20-dione-21-[1-ethyl-6-fluoro-1,4-dihydro-7-(1-piperazinyl)-4-oxo-3-quinolinecarboxylate]hydrochloride] was run?
Answer: 20.02 ± 3.80 μg/site

Question: What about the “% Inhibition” value (inhibition of dye leakage vs control (distilled water)) of the same compound?
Answer: 73.0%
